Test results: US20250145665A1, “MACROCYCLIC PEPTIDES USEFUL AS MODULATORS OF TNF ALPHA” (Bristol-Myers Squibb Company, priority 2023, published 2025)
pIC50: −log10 of the molar value. Positions of bridges follow the written chain, without caps; N, C: chain ends. Non-standard residues stand in square brackets, D forms with d. Residues, ends and D or L forms follow the SMILES beside them. Bip(4'-COOH) = N[C@@H](Cc1ccc(-c2ccc(C(=O)O)cc2)cc1)C(=O)O; Bip(4'-NHAc) = CC(=O)Nc1ccc(-c2ccc(C[C@H](N)C(=O)O)cc2)cc1; Ala(morpholin-4-yl) = N[C@@H](CN1CCOCC1)C(=O)O; Phe(3-CONH2) = NC(=O)c1cccc(C[C@H](N)C(=O)O)c1; Bip = N[C@@H](Cc1ccc(-c2ccccc2)cc1)C(=O)O; Abu(3S-NH2) = C[C@H](N)[C@H](N)C(=O)O; 2Pal = N[C@@H](Cc1ccccn1)C(=O)O; 2Thi = N[C@@H](Cc1cccs1)C(=O)O; Cha = N[C@@H](CC1CCCCC1)C(=O)O; Chg = N[C@H](C(=O)O)C1CCCCC1; Dab = NCC[C@H](N)C(=O)O; Sar = CNCC(=O)O

The compounds below were run against TNFα (Homo sapiens, UniProt P01375) (assay: TNF-Induced HEK-Blue Assay). Conditions: HEK-Blue-CD40L cells, NF-kB-driven secreted alkaline phosphatase reporter; TNFα 0.5 ng/ml; 18 h; read-out: TNF induced HEK-Blue assay IC50 value.
TNFα, sequence (P01375 77-233 limits assumed): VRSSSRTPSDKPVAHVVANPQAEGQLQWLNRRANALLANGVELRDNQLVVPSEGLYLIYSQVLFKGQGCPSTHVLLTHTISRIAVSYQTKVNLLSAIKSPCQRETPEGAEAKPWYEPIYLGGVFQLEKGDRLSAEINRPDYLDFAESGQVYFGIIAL
Assay type: cell-based

`CC(=O)Nc1ccc(-c2ccc(C[C@@H]3NC(=O)[C@H](Cc4ccc(-c5ccccc5)cc4)NC(=O)[C@H](CN4CCOCC4)NC(=O)CSC[C@@H](C(=O)NCC(N)=O)NC(=O)[C@H](CC(C)C)NC(=O)[C@H](CCCNC(=N)N)NC(=O)[C@H](C4CCCCC4)NC(=O)[C@@H]4CCCN4C(=O)[C@H](C(C)C)NC(=O)[C@@H](CCCNC(=N)N)NC(=O)[C@H](CC(=O)O)NC(=O)[C@H](Cc4cnc[nH]4)NC(=O)CN(C)C3=O)cc2)cc1` [Example 232] ({CH2CO}-[Ala(morpholin-4-yl)][Bip][Bip(4'-NHAc)][Sar]HD[dR]VP[Chg]RLCG-NH2; thioether N-13) and `CC[C@H](C)[C@@H]1NC(=O)[C@@H](CCCNC(=N)N)NC(=O)[C@H](CC(=O)O)NC(=O)[C@H](Cc2cnc[nH]2)NC(=O)CN(C)C(=O)[C@H](Cc2ccc(-c3ccc(NC(C)=O)cc3)cc2)NC(=O)[C@H](Cc2ccc(-c3ccccc3)cc2)NC(=O)[C@H](CN2CCOCC2)NC(=O)CSC[C@@H](C(=O)NCC(N)=O)NC(=O)[C@H](CC(C)C)NC(=O)[C@H](Cc2cnc[nH]2)NC(=O)[C@H](C(C)C)NC(=O)[C@@H]2CCCN2C1=O` [Example 238] ({CH2CO}-[Ala(morpholin-4-yl)][Bip][Bip(4'-NHAc)][Sar]HD[dR]IPVHLCG-NH2; thioether N-13) cannot be ordered by pIC50: > 7.30 for the first, > 7.30 for the second.

Compared with `CC(=O)Nc1ccc(-c2ccc(C[C@@H]3NC(=O)[C@H](Cc4ccc(-c5ccccc5)cc4)NC(=O)[C@H](CC4CCCCC4)NC(=O)CSC[C@@H](C(=O)NCC(N)=O)NC(=O)[C@H](CC(C)C)NC(=O)[C@H](Cc4cccc(C(N)=O)c4)NC(=O)[C@H](C(C)C)NC(=O)[C@@H]4CCCN4C(=O)[C@H](C(C)C)NC(=O)[C@@H](CCCNC(=N)N)NC(=O)[C@H](CC(=O)O)NC(=O)[C@H](Cc4ccccn4)NC(=O)CN(C)C3=O)cc2)cc1` [Example 233] ({CH2CO}-[Cha][Bip][Bip(4'-NHAc)][Sar][2Pal]D[dR]VPV[Phe(3-CONH2)]LCG-NH2; thioether N-13), `CC(=O)Nc1ccc(-c2ccc(C[C@@H]3NC(=O)[C@H](Cc4ccc(-c5ccccc5)cc4)NC(=O)[C@H](CC4CCCCC4)NC(=O)CSC[C@@H](C(=O)NCC(N)=O)NC(=O)[C@H](CC(C)C)NC(=O)[C@H](Cc4cccs4)NC(=O)[C@H](C(C)C)NC(=O)[C@@H]4CCCN4C(=O)[C@H](C(C)C)NC(=O)[C@@H](CCCNC(=N)N)NC(=O)[C@H](CC(=O)O)NC(=O)[C@H](Cc4ccccn4)NC(=O)CN(C)C3=O)cc2)cc1` [Example 235] ({CH2CO}-[Cha][Bip][Bip(4'-NHAc)][Sar][2Pal]D[dR]VPV[2Thi]LCG-NH2; thioether N-13) is lower in pIC50: > 7.30 for the first, 5.70 to 6.70 for the second. The first is the more potent here.

Compared with `CC(=O)Nc1ccc(-c2ccc(C[C@@H]3NC(=O)[C@H](Cc4ccc(-c5ccc(C(=O)O)cc5)cc4)NC(=O)[C@H](CC4CCCCC4)NC(=O)CSC[C@@H](C(=O)NCC(N)=O)NC(=O)[C@H](CC(C)C)NC(=O)[C@H](Cc4cnc[nH]4)NC(=O)[C@H](C(C)C)NC(=O)[C@@H]4CCCN4C(=O)[C@H](C(C)C)NC(=O)[C@@H](CCCNC(=N)N)NC(=O)[C@H](CC(=O)O)NC(=O)[C@H](Cc4cnc[nH]4)NC(=O)CN(C)C3=O)cc2)cc1` [Example 234] ({CH2CO}-[Cha][Bip(4'-COOH)][Bip(4'-NHAc)][Sar]HD[dR]VPVHLCG-NH2; thioether N-13), `CC(=O)Nc1ccc(-c2ccc(C[C@@H]3NC(=O)[C@H](Cc4ccc(-c5ccccc5)cc4)NC(=O)[C@H](CC4CCCCC4)NC(=O)CSC[C@@H](C(=O)NCC(N)=O)NC(=O)[C@H](CC(C)C)NC(=O)[C@H](Cc4cccc(C(N)=O)c4)NC(=O)[C@H](C(C)C)NC(=O)[C@@H]4CCCN4C(=O)[C@H](C(C)C)NC(=O)[C@@H](CCCNC(=N)N)NC(=O)[C@H](CC(=O)O)NC(=O)[C@@H]4CCCN4C(=O)CN(C)C3=O)cc2)cc1` [Example 240] ({CH2CO}-[Cha][Bip][Bip(4'-NHAc)][Sar]PD[dR]VPV[Phe(3-CONH2)]LCG-NH2; thioether N-13) is lower in pIC50: > 7.30 for the first, 6.70 to 7.30 for the second. The first is the more potent here.

Compared with `CC(=O)Nc1ccc(-c2ccc(C[C@@H]3NC(=O)[C@H](Cc4ccc(-c5ccc(C(=O)O)cc5)cc4)NC(=O)[C@H](CN4CCOCC4)NC(=O)CSC[C@@H](C(=O)NCC(N)=O)NC(=O)[C@H](CC(C)C)NC(=O)[C@H](Cc4ccc(O)cc4)NC(=O)[C@H](C(C)C)NC(=O)[C@@H]4CCCN4C(=O)[C@H](C(C)C)NC(=O)[C@@H](CCCNC(=N)N)NC(=O)[C@H](CC(=O)O)NC(=O)[C@@H]4CCCN4C(=O)CN(C)C3=O)cc2)cc1` [Example 236] ({CH2CO}-[Ala(morpholin-4-yl)][Bip(4'-COOH)][Bip(4'-NHAc)][Sar]PD[dR]VPVYLCG-NH2; thioether N-13), `CC(=O)Nc1ccc(-c2ccc(C[C@@H]3NC(=O)[C@H](Cc4ccc(-c5ccc(C(=O)O)cc5)cc4)NC(=O)[C@H](CN4CCOCC4)NC(=O)CSC[C@@H](C(=O)NCC(N)=O)NC(=O)[C@H](CC(C)C)NC(=O)[C@H](Cc4ccc(O)cc4)NC(=O)[C@H](C4CCCCC4)NC(=O)[C@@H]4CCCN4C(=O)[C@H](C(C)C)NC(=O)[C@@H](CCCNC(=N)N)NC(=O)[C@H](CC(=O)O)NC(=O)[C@@H]4CCCN4C(=O)CN(C)C3=O)cc2)cc1` [Example 237] ({CH2CO}-[Ala(morpholin-4-yl)][Bip(4'-COOH)][Bip(4'-NHAc)][Sar]PD[dR]VP[Chg]YLCG-NH2; thioether N-13) is higher in pIC50: 5.70 to 6.70 for the first, 6.70 to 7.30 for the second. The second is the more potent here.

`CC(=O)Nc1ccc(-c2ccc(C[C@@H]3NC(=O)[C@H](Cc4ccc(-c5ccccc5)cc4)NC(=O)[C@H](CC4CCCCC4)NC(=O)CSC[C@@H](C(=O)NCC(N)=O)NC(=O)[C@H](CC(C)C)NC(=O)[C@H](Cc4ccc(O)cc4)NC(=O)[C@H](C(C)C)NC(=O)[C@@H]4CCCN4C(=O)[C@H]([C@H](C)N)NC(=O)[C@@H](CCCNC(=N)N)NC(=O)[C@H](CC(=O)O)NC(=O)[C@@H]4CCCN4C(=O)CN(C)C3=O)cc2)cc1` [Example 239] ({CH2CO}-[Cha][Bip][Bip(4'-NHAc)][Sar]PD[dR][Abu(3S-NH2)]PVYLCG-NH2; thioether N-13) and `CC(=O)Nc1ccc(-c2ccc(C[C@@H]3NC(=O)[C@H](Cc4ccc(-c5ccc(C(=O)O)cc5)cc4)NC(=O)[C@H](CC4CCCCC4)NC(=O)CSC[C@@H](C(=O)N[C@@H](CCN)C(N)=O)NC(=O)[C@H](CC(C)C)NC(=O)[C@H](Cc4ccc(O)cc4)NC(=O)[C@H](C(C)C)NC(=O)[C@@H]4CCCN4C(=O)[C@H](C(C)C)NC(=O)[C@@H](CCCNC(=N)N)NC(=O)[C@H](CC(=O)O)NC(=O)[C@@H]4CCCN4C(=O)CN(C)C3=O)cc2)cc1` [Example 243] ({CH2CO}-[Cha][Bip(4'-COOH)][Bip(4'-NHAc)][Sar]PD[dR]VPVYLC[Dab]-NH2; thioether N-13) fall in the same range of pIC50: 6.70 to 7.30 for the first, 6.70 to 7.30 for the second.

In the case of `CC(=O)Nc1ccc(-c2ccc(C[C@@H]3NC(=O)[C@H](Cc4ccc(-c5ccc(C(=O)O)cc5)cc4)NC(=O)[C@H](CC4CCCCC4)NC(=O)CSC[C@@H](C(=O)N[C@@H](CCC(N)=O)C(N)=O)NC(=O)[C@H](CC(C)C)NC(=O)[C@H](Cc4ccc(O)cc4)NC(=O)[C@H](C(C)C)NC(=O)[C@@H]4CCCN4C(=O)[C@H](C(C)C)NC(=O)[C@@H](CCCNC(=N)N)NC(=O)[C@H](CC(=O)O)NC(=O)[C@@H]4CCCN4C(=O)CN(C)C3=O)cc2)cc1` [Example 244] ({CH2CO}-[Cha][Bip(4'-COOH)][Bip(4'-NHAc)][Sar]PD[dR]VPVYLCQ-NH2; thioether N-13), the pIC50 was 5.70 to 6.70.
